{
  "source": "patent US20040126385A1",
  "about": "“Methods and compositions for screening, diagnosing, or treating NF-kappaB related disease” (priority 2001, published 2004)",
  "key": {"[1]": {"tested_on": "CSMLO-induced tumors", "assay": "Tumor growth in mouse tumor model (CSMLO cells implanted in female A-J mice)", "format": "in vivo", "experimental": "FIG. 1. Inhibition of growth of tumors by Go6976. Tumors were generated in female A-J mice by implantation of CSMLO cells (10^6) on day 0 (indicated by the arrow). Go6976 (0.5 ml of 0.05 mM solution in 0.1% DMSO) was administered 48 h later to a group of five animals, twice a week locally at the site of implantation of cells (♦). Control group (five animals) received 0.5 ml of 0.1% DMSO similarly (□). Growth of tumors was monitored by measurements of tumor volume at regular intervals (32).\n(§1) FIG. 2. Regression of tumors by Go6976. (A) CSMLO cells were implanted on day 0 (indicated by the arrow) as for FIG. 1. Go6976 was administered on day 21 (indicated by the arrow), locally under the tumors of the five animals with comparatively larger tumors (▪). Another five animals received the same volume of 0.1% DMSO (♦) on the same day, and the control group of five animals received nothing (□). (B) One representative of five animals from each group. Animals 1 and 2 are DMSO- and Go6976-treated non-tumor-bearing animals, respectively. Animal 3 is tumor-bearing and without treatment. Animals 4 and 5 represent tumor-bearing groups treated with DMSO and Go6976, respectively. Animal 6 is an A-J mouse that received nothing.\nAnimal model. […] Palpable tumors were consistently detected within 10-15 days following implantation of the cells. Body weight and tumor volumes (32) were monitored weekly. […]"}, "[2]": {"tested_on": "NF-κB", "assay": "Level of active NF-κB in nuclear extracts by EMSA", "format": "cell-based, mouse", "settings": "CSMLO cells", "experimental": "FIG. 3. Active NF-κB complex in CSMLO cells: Stimulation by PMA and inhibition by Go6976. (A) Nuclear extracts (5 μg protein) from control and PMA-treated (20 ng/ml for 18 h) CSMLO cells were incubated in a standard EMSA reaction mixture containing [γ-^32P]-labeled double-stranded oligonucleotide plus Go6976 at the indicated μM concentrations for […] and subjected to nondenaturing PAGE (7, 31). The autoradiographic signals of the retarded NF-κB-[^32 P]DNA complex is indicated by the upper arrow and the free [γ-^32P]-labeled probe by the lower arrow. (B) The NF-κB-[^32P]DNA complex was characterized by supershift assay with anti-p50 (lanes 3 and 4) or p65 (B, lanes 5 and 6) antibodies. Nuclear extracts were incubated with specific antibodies for 15 min at room temperature, followed by incubation for an additional 30 min in the presence of [γ-^32p] double-stranded NF-κB oligonucleotide, and subjected to EMSA as described (7, 31). The supershifted complexes are indicated by the upper arrow.\nMethods. Measurements of the level of active NF-κB by EMSA. The level of active NF-κB in the nuclear extracts of control and treated cells was determined by its DNA binding activity by EMSA as described 7, 30, 31). The [^32P]DNA-protein complex was identified as a retarded radioactive band in EMSA detected by autoradiography. […]"}, "[3]": {"tested_on": "CSMLO cells", "assay": "Growth of CSMLO cells under culture conditions", "format": "cell-based, mouse", "settings": "short-term drug treatment with 10 μM Go6976", "experimental": "Materials. Mouse mammary adenocarcinoma cells in culture (CSMLO) were grown in complete medium supplemented with 10% FBS and growth factors as described (7, 11, 12). Anti-human ER antibody (SC543), anti-mouse ccD1 antibody, anti-p50, and anti-p65 antibodies for the NF-κB subunits were obtained from Santa Cruz Biotechnology. Rabbit polyclonal IgG raised against the conserved region of actin and anti-Flag (M2) monoclonal antibody were obtained from Sigma-Aldrich. The fluorescein-conjugated goat anti-mouse IgG was from Oncogene Science. Complementary strands of the oligonucleotide (5′-[…]-3′) containing the NF-κB motif (bold faced) were custom synthesized by Integrated DNA Technologies (Coralville, Iowa). The double-stranded NF-κB-oligonucleotide was end-labeled with [γ-^32P]ATP (NEN) and T4 kinase (New England Biolabs) as described (7), and was used for electrophoretic mobility shift assay (EMSA). Hydrocortisone, insulin, DTT, dimethyl sulfoxide (DMSO), and phenylmethylsulfonyl fluoride were obtained from Sigma. Hybond nitrocellulose membrane and ECL (enhanced chemiluminescence) immunodetection kits were obtained from Amersham Pharmacia. Go6976, a nonglyosidic indolcarbazole, and an inhibitor of protein kinase C alpha and beta was purchased from Calbiochem-Novabiochem (28, 29)."}, "[4]": {"tested_on": "tumor, liver, and lung tissues", "assay": "Histology (H&E) of tumor, liver and lung tissues of tumor-bearing animals", "format": "in vivo, mouse", "source_text": "FIG. 4. Histology of tissues from untreated and Go6976-treated tumor-bearing animals. Tumor growth and treatment conditions are the same as described for FIG. 1. Tumor, liver, and lung tissues from untreated and treated tumor bearing animals were dissected 11 days after the initiation of treatment and 32 days after implantation of the cells. Tissues were processed for hematoxylin/eosin (H&E) staining, examined under a light microscope, and photographed at the indicated magnifications. Arrows show mitotic cells in untreated tumor tissue. Residual tumor (T) and necrotic cells (N) of the treated tumor are shown. Stars in the treated block indicate pycnotic cells with apparent fragmentation and clumping of nuclear DNA.\n(§2) Animal model. The tumorigenic potential of CSMLO and dnIkkβ-expressing stable transfectants was examined in female A-J mice 2-3 weeks old. For each mouse, 1.0 s×10^6 cells were implanted under the dorsal skin. Palpable tumors were consistently detected within 10-15 days following implantation of the cells. Body weight and tumor volumes (32) were monitored weekly. Go6976 (0.5 ml of 0.05 mM stock solution in 0.1% DMSO) was administered to each animal locally two times a week. The control group received the same volume of the solvent (0.5 ml of 0.1%)."}, "[5]": {"tested_on": "ccD1", "assay": "Level of ccD1 by Western blot analysis", "format": "cell-based, mouse", "settings": "CSMLO cells transfected with dnIkkβ", "source_text": "FIG. 5. Inhibition of NF-κB activation and down stream events by stable expression of dominant-negative IκB-kinase β (dnIkkβ). (A Upper) dnIkkβ-Expressing transfectant cells by light microscopy (i), 4′,6-diamidino-2-phenylindole (DAPI)-stained nuclei (ii), and immunofluorescence with anti-FLAG antibody in the presence of the secondary antibody (iii). The positive signals show dnIkkβ-conjugated FLAG protein in the cytoplasm. (Lower) Processed vector-control plasmid-transfected CSMLO cells in which no FLAG protein could be detected (vi). (B Upper) Active NF-κB was determined by its [γ-^32P]DNA binding activity by EMSA, in three dnIkkβ-expressing stable transfectants (dnIkkβ1-1, dnIkkβ1-3, and dnIkkβ1-5) and (Lower) in parent CSMLO cells and vector control plasmid expressing transfectant (vect1-5). (C Upper) The level of ccD1 in the same three-dnIkkβ-expressing CSMLO and vector control transfected cells, as measured by Western blot analysis. (Lower) Actin analyzed similarly by immunodetection with anti-β-actin antibody that serves as a loading control."}, "[6]": {"assay": "Physical condition and lethality of treated mice", "format": "in vivo", "experimental": "as §1, §2"}},
  "data": [
    {"molecule": "Cn1c2ccccc2c2c3c(c4c5ccccc5n(CCC#N)c4c21)CNC3=O", "note": "[Go6976]", "values": [
      {"measurement": "tumor growth (tumor volume)", "setting": "[1]; Go6976 0.5 ml of 0.05 mM in 0.1% DMSO, local, twice a week, started within 48 h of implantation of CSMLO cells, vs DMSO-treated group", "result": "substantial inhibition of tumor growth"},
      {"measurement": "regression of full-grown tumors (tumor volume)", "setting": "[1]; Go6976 administered locally 21 days after implantation of CSMLO cells, all of five animals", "result": "regressed sharply"},
      {"measurement": "basal level of NF-κB", "setting": "[2]", "result": "did not affect the basal level of NF-κB"},
      {"measurement": "PMA-induced elevation of NF-κB activation", "setting": "[2]; PMA 20 ng/ml, simultaneous treatment with Go6976 for 48 h", "result": "inhibited in a concentration-dependent manner"},
      {"measurement": "growth of cells under culture conditions", "setting": "[3]", "result": "not affected"},
      {"measurement": "histological changes in tumor tissue", "setting": "[4]; Go6976-treated tumor-bearing animals, 11 days after initiation of treatment", "result": "extensive necrosis"},
      {"measurement": "pycnotic cells in residual tumor tissue (suggestive of DNA fragmentation and apoptosis)", "setting": "[4]; treated animal, magnification 100×", "result": "a large number of pycnotic cells with nuclear clumping"},
      {"measurement": "pathological changes in liver and lung tissue", "setting": "[4]; tumor-bearing or non-tumor-bearing animals, localized Go6976 treatment", "result": "did not show any microscopically detectable pathological changes"},
      {"measurement": "transactivation of ccD1", "setting": "[5]", "result": "blocked transactivation of ccD1"},
      {"measurement": "physical defects as judged by body weight and agility", "setting": "[6]; mice without tumor treated with Go6976", "result": "did not show any apparent physical defects"},
      {"measurement": "mouse lethality", "setting": "[6]; mouse, in vivo", "result": "without mouse lethality"}
    ]}
  ]
}
